The results in this text go back to the supplement of paper PMC10307832.

Common to all, as to assay: relative viability (nuclei count vs DMSO), 5 days (fraction); higher = more cells survive
Compound in the assay “BX 795 + Alpelisib”: O=C(NCCCNc1nc(Nc2cccc(NC(=O)N3CCCC3)c2)ncc1I)c1cccs1 [BX 795] + Cc1nc(NC(=O)N2CCC[C@H]2C(N)=O)sc1-c1ccnc(C(C)(C)C(F)(F)F)c1 [Alpelisib] (partner 2 µM)
In a few lines: (§1)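 Lung cancer cell lines in 1536-well plates were dosed by pin tool the day after seeding, either with one drug alone or with a fixed anchor-drug dose plus five library-drug doses (not always all listed) in √10 steps. After 5 days, cells were fixed and their nuclei stained in one step (final 0.05% Triton X-100, 1% formaldehyde, 1 ug/ml Hoechst), then counted on 4× images. Relative viability is the nuclei count in treated wells divided by that in vehicle wells. Values are medians of duplicate plates.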

Compound in the assay “BX 795 + AZD7762”: O=C(NCCCNc1nc(Nc2cccc(NC(=O)N3CCCC3)c2)ncc1I)c1cccs1 [BX 795] + NC(=O)Nc1cc(-c2cccc(F)c2)sc1C(=O)N[C@H]1CCCNC1 [AZD7762] (partner 0.2 µM)
In a few lines:
as §1

Compound in the assay “BX 795 + Crizotinib”: O=C(NCCCNc1nc(Nc2cccc(NC(=O)N3CCCC3)c2)ncc1I)c1cccs1 [BX 795] + C[C@@H](Oc1cc(-c2cnn(C3CCNCC3)c2)cnc1N)c1c(Cl)ccc(F)c1Cl [Crizotinib] (partner 1 µM)
In short, it runs like this: as §1

Compound in the assay “BX 795 + Olaparib”: O=C(NCCCNc1nc(Nc2cccc(NC(=O)N3CCCC3)c2)ncc1I)c1cccs1 [BX 795] + O=C(c1cc(Cc2n[nH]c(=O)c3ccccc23)ccc1F)N1CCN(C(=O)C2CC2)CC1 [Olaparib] (partner 8 µM)
In short, it runs like this:
as §1

Compound in the assay “BX 795 + Dasatinib”: O=C(NCCCNc1nc(Nc2cccc(NC(=O)N3CCCC3)c2)ncc1I)c1cccs1 [BX 795] + Cc1nc(Nc2ncc(C(=O)Nc3c(C)cccc3Cl)s2)cc(N2CCN(CCO)CC2)n1 [Dasatinib] (partner 0.075 µM)
In short, it runs like this: as §1

EKVX: the relative viability in the assay with BX 795 + Alpelisib (first compound 0.04 µM) came out at 0.841; with BX 795 + Alpelisib (first compound 0.1265 µM), 0.933; with BX 795 + Alpelisib (first compound 0.4 µM) it was 0.808; with BX 795 + Alpelisib (first compound 1.265 µM) it was 0.837; in the assay with BX 795 + AZD7762 (first compound 0.04 µM), 0.67; with BX 795 + AZD7762 (first compound 0.1265 µM) it was 0.805. The relative viability in the assay with BX 795 + AZD7762 (first compound 0.4 µM) is 0.671; with BX 795 + AZD7762 (first compound 1.265 µM), 0.645; with BX 795 + Crizotinib (first compound 0.04 µM) it was 1.04; with BX 795 + Crizotinib (first compound 0.1265 µM) it was 0.867; with BX 795 + Crizotinib (first compound 0.4 µM) it was 0.732; in the assay with BX 795 + Crizotinib (first compound 1.265 µM), 0.753. Moreover, the relative viability with BX 795 + Olaparib (first compound 0.04 µM) stood at 0.833; in the assay with BX 795 + Olaparib (first compound 0.1265 µM) it was 0.783; with BX 795 + Olaparib (first compound 0.4 µM), 0.666; with BX 795 + Olaparib (first compound 1.265 µM), 0.807; with BX 795 + Dasatinib (first compound 0.04 µM) it was 0.637; with BX 795 + Dasatinib (first compound 0.1265 µM) it was 0.295. The relative viability amounted to 0.539 with BX 795 + Dasatinib (first compound 0.4 µM) and 0.508 with BX 795 + Dasatinib (first compound 1.265 µM).
201T: the relative viability with BX 795 + Alpelisib (first compound 0.04 µM) is 1.01; with BX 795 + Alpelisib (first compound 0.1265 µM), 1.02; with BX 795 + Alpelisib (first compound 0.4 µM), 1.1; in the assay with BX 795 + Alpelisib (first compound 1.265 µM) it was 1.03; with BX 795 + AZD7762 (first compound 0.04 µM) it was 0.6; in the assay with BX 795 + AZD7762 (first compound 0.1265 µM) it was 0.603. The relative viability was 0.597 in the assay with BX 795 + AZD7762 (first compound 0.4 µM); 0.628 with BX 795 + AZD7762 (first compound 1.265 µM); 1.06 in the assay with BX 795 + Crizotinib (first compound 0.04 µM); 1.03 in the assay with BX 795 + Crizotinib (first compound 0.1265 µM); 1.1 in the assay with BX 795 + Crizotinib (first compound 0.4 µM); 1.03 in the assay with BX 795 + Crizotinib (first compound 1.265 µM). The relative viability is 0.657 with BX 795 + Olaparib (first compound 0.04 µM); 0.851 with BX 795 + Olaparib (first compound 0.1265 µM); 0.899 in the assay with BX 795 + Olaparib (first compound 0.4 µM); 0.856 with BX 795 + Olaparib (first compound 1.265 µM); 0.627 with BX 795 + Dasatinib (first compound 0.04 µM); 0.617 in the assay with BX 795 + Dasatinib (first compound 0.1265 µM). For the same cell line, the relative viability was 0.629 in the assay with BX 795 + Dasatinib (first compound 0.4 µM) and 0.635 with BX 795 + Dasatinib (first compound 1.265 µM).
Turning to NCI-H1993, the relative viability with BX 795 + Alpelisib (first compound 0.04 µM) worked out at 0.583; with BX 795 + Alpelisib (first compound 0.1265 µM), 0.655; with BX 795 + Alpelisib (first compound 0.4 µM), 0.641; with BX 795 + Alpelisib (first compound 1.265 µM), 0.689; with BX 795 + AZD7762 (first compound 0.04 µM) it was 0.759; with BX 795 + AZD7762 (first compound 0.1265 µM), 0.795. Further, the relative viability with BX 795 + AZD7762 (first compound 0.4 µM) came to 0.589; with BX 795 + AZD7762 (first compound 1.265 µM), 0.809; with BX 795 + Crizotinib (first compound 0.04 µM), 0.888; with BX 795 + Crizotinib (first compound 0.1265 µM), 0.891; with BX 795 + Crizotinib (first compound 0.4 µM), 0.795; in the assay with BX 795 + Crizotinib (first compound 1.265 µM) it was 0.665. Further, the relative viability in the assay with BX 795 + Olaparib (first compound 0.04 µM) worked out at 0.847; with BX 795 + Olaparib (first compound 0.1265 µM), 0.92; with BX 795 + Olaparib (first compound 0.4 µM), 1.16; with BX 795 + Olaparib (first compound 1.265 µM), 0.92; in the assay with BX 795 + Dasatinib (first compound 0.04 µM), 0.454; with BX 795 + Dasatinib (first compound 0.1265 µM), 0.56. Besides, the relative viability with BX 795 + Dasatinib (first compound 0.4 µM) worked out at 0.472; with BX 795 + Dasatinib (first compound 1.265 µM), 0.525.
As to NCI-H596, the relative viability with BX 795 + Alpelisib (first compound 0.04 µM) was determined as 0.508; with BX 795 + Alpelisib (first compound 0.1265 µM), 0.483; in the assay with BX 795 + Alpelisib (first compound 0.4 µM) it was 0.546; with BX 795 + Alpelisib (first compound 1.265 µM), 0.363; with BX 795 + AZD7762 (first compound 0.04 µM), 1.11; in the assay with BX 795 + AZD7762 (first compound 0.1265 µM), 0.956. Moreover, the relative viability with BX 795 + AZD7762 (first compound 0.4 µM) was found to be 1.14; with BX 795 + AZD7762 (first compound 1.265 µM), 1.03; in the assay with BX 795 + Crizotinib (first compound 0.04 µM), 1.08; with BX 795 + Crizotinib (first compound 0.1265 µM), 1.02; with BX 795 + Crizotinib (first compound 0.4 µM) it was 1.03; with BX 795 + Crizotinib (first compound 1.265 µM), 0.874. For the same cell line, the relative viability in the assay with BX 795 + Olaparib (first compound 0.04 µM) was 0.729; with BX 795 + Olaparib (first compound 0.1265 µM), 0.673; in the assay with BX 795 + Olaparib (first compound 0.4 µM), 0.632; in the assay with BX 795 + Olaparib (first compound 1.265 µM) it was 0.766; in the assay with BX 795 + Dasatinib (first compound 0.04 µM), 0.626; in the assay with BX 795 + Dasatinib (first compound 0.1265 µM) it was 0.587. In addition, the results for the relative viability with BX 795 + Dasatinib (first compound 0.4 µM) and with BX 795 + Dasatinib (first compound 1.265 µM) were 0.561 and 0.591, respectively.
LCLC-103H: the relative viability in the assay with BX 795 + Alpelisib (first compound 0.04 µM) was 0.944; with BX 795 + Alpelisib (first compound 0.1265 µM) it was 1.1; with BX 795 + Alpelisib (first compound 0.4 µM) it was 1.05; with BX 795 + Alpelisib (first compound 1.265 µM) it was 1.01; with BX 795 + AZD7762 (first compound 0.04 µM), 0.706; in the assay with BX 795 + AZD7762 (first compound 0.1265 µM), 0.878. Moreover, the relative viability was 0.712 with BX 795 + AZD7762 (first compound 0.4 µM); 0.849 with BX 795 + AZD7762 (first compound 1.265 µM); 0.979 with BX 795 + Crizotinib (first compound 0.04 µM); 1.1 with BX 795 + Crizotinib (first compound 0.1265 µM); 1.01 with BX 795 + Crizotinib (first compound 0.4 µM); 1.04 in the assay with BX 795 + Crizotinib (first compound 1.265 µM). Moreover, the relative viability with BX 795 + Olaparib (first compound 0.04 µM) is 0.794; in the assay with BX 795 + Olaparib (first compound 0.1265 µM), 0.73; with BX 795 + Olaparib (first compound 0.4 µM), 0.761; with BX 795 + Olaparib (first compound 1.265 µM), 0.763; with BX 795 + Dasatinib (first compound 0.04 µM) it was 0.55; with BX 795 + Dasatinib (first compound 0.1265 µM), 0.481. For the same cell line, the values for the relative viability with BX 795 + Dasatinib (first compound 0.4 µM) and in the assay with BX 795 + Dasatinib (first compound 1.265 µM) were 0.553 and 0.412, respectively.
In the case of NCI-H2347, the relative viability in the assay with BX 795 + Alpelisib (first compound 0.04 µM) was found to be 1.19; with BX 795 + Alpelisib (first compound 0.1265 µM) it was 1; in the assay with BX 795 + Alpelisib (first compound 0.4 µM), 1.11; in the assay with BX 795 + Alpelisib (first compound 1.265 µM), 0.892; with BX 795 + AZD7762 (first compound 0.04 µM) it was 0.806; with BX 795 + AZD7762 (first compound 0.1265 µM) it was 0.838. Moreover, the relative viability with BX 795 + AZD7762 (first compound 0.4 µM) stood at 0.677; in the assay with BX 795 + AZD7762 (first compound 1.265 µM), 0.578; with BX 795 + Crizotinib (first compound 0.04 µM), 0.8; with BX 795 + Crizotinib (first compound 0.1265 µM) it was 0.616; with BX 795 + Crizotinib (first compound 0.4 µM), 0.801; with BX 795 + Crizotinib (first compound 1.265 µM), 0.545. Besides, the relative viability with BX 795 + Olaparib (first compound 0.04 µM) worked out at 0.679; with BX 795 + Olaparib (first compound 0.1265 µM), 0.658; with BX 795 + Olaparib (first compound 0.4 µM), 0.646; with BX 795 + Olaparib (first compound 1.265 µM), 0.515; with BX 795 + Dasatinib (first compound 0.04 µM), 0.385; with BX 795 + Dasatinib (first compound 0.1265 µM), 0.325. Moreover, the relative viability with BX 795 + Dasatinib (first compound 0.4 µM) came to 0.293; with BX 795 + Dasatinib (first compound 1.265 µM) it was 0.283.
